Emax data for 36 molecules are collected here from patent publication US20260216294A1, “BETA 2-ADRENERGIC RECEPTOR AGONISTS FOR TREATMENT OR PREVENTION OF MUSCLE WASTING” (ATROGI AB, priority 2023, published 2026).

Assay [1] has as its system L6-myotubes. The experiment in a line: Glucose uptake in differentiated L6-myotubes (Biological Example 2). It counts as cell-based. Conditions: read-out: Biological example 2 (GU). The method, boiled down:
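Differentiated L6 myotubes were serum-starved overnight in 0.5% fatty-acid-free BSA and then stimulated with compound or isoprenaline at 1×10^−5 M final. After 1 h 40 min cells were washed and re-dosed in glucose-free medium. Twenty minutes later, uptake of 50 nM ^3H-2-deoxyglucose over 10 min was measured by scintillation counting of NaOH lysates.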

The subject of assay [2] is L6-myotubes. The experiment in a line: Measurement of intracellular cAMP levels in differentiated L6-myotubes (Biological Example 3). Type of assay: cell-based. The note with it: 0.25 h. The method, boiled down:
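Serum-starved differentiated L6 myotubes stimulated 15 min with test compound at 1×10^−5 M final (isoprenaline as reference) in HBSS with 1% BSA, 5 mM HEPES, 1 mM IBMX, pH 7.4. Cells EtOH-extracted, lysed, and intracellular cAMP measured by AlphaScreen.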

Setting [3] is: glucose uptake, compound at 10 μM relative to isoproterenol at 10 μM.
Where [4] appears, read: intracellular cAMP, compound at 10 μM relative to isoproterenol at 10 μM.
The mark [5] stands for this setting: glucose uptake in differentiated L6-myotubes, compound at 10 μM, activity relative to isoproterenol at 10 μM.
The mark [6] stands for this setting: intracellular cAMP in differentiated L6-myotubes, compound at 10 μM, activity relative to isoproterenol at 10 μM.

Regarding `Oc1ccc(C(O)CNC23CC4CC(CC(C4)C2)C3)cc1` (stereo not drawn) [Compound 11, p-[2-(1-adamantanylamino)-1-hydroxyethyl]phenol], the Emax at 10 µM was 25 to 50% in the assay on L6-myotubes [1] (setting [3]) and < 25% with L6-myotubes [2] (setting [4]).

For `CC(C)(C)NC[C@H](O)c1cncc(Cl)c1` [Compound 138, (R)-2-(tert-butylamino)-1-(5-chloro-3-pyridyl)-1-ethanol], the Emax at 10 µM in the assay with L6-myotubes [1] (setting [3]) and in the assay with L6-myotubes [2] (setting [4]) was > 75% each time.

As to `CC1(C)CC[C@@H]([C@@H](O)c2cccc(O)c2)N1` [Compound 143], the Emax at 10 µM in the assay with L6-myotubes [1] (setting [3]) and in the assay with L6-myotubes [2] (setting [4]) was < 25% throughout.

For `CO[C@H]1CC[C@H](C[C@@H]2CC[C@H]([C@@H](O)c3cccc(F)c3)N2)CC1` [Compound 325, (S)-[(2R,5S)-5-{[(1r,4S)-4-methoxycyclohexyl]methyl}-2-pyrrolidinyl](m-fluorophenyl)methanol], the Emax at 10 µM in the assay with L6-myotubes [1] (setting [5]) is > 75%; with L6-myotubes [2] (setting [6]), < 25%.

For the molecule `O[C@H](c1cccc(F)c1)C12CCC(COCc3ccc(OC(F)(F)F)cc3)(CC1)N2` [Compound 488], the Emax at 10 µM with L6-myotubes [1] (setting [5]) and with L6-myotubes [2] (setting [6]) was < 25% in each case.

Turning to `CCC[C@@H]1CCC[C@H]([C@H](O)c2cccc(O)c2)N1` [Compound 45], the results for the Emax at 10 µM with L6-myotubes [1] (setting [3]) and with L6-myotubes [2] (setting [4]) were > 75% and < 25%, respectively.

For `CO[C@H]1CC[C@@H](CCC(C)(C)NC[C@H](O)c2cncc(F)c2)CC1` [Compound 266], the figures for the Emax at 10 µM in the assay on L6-myotubes [1] (setting [5]) and with L6-myotubes [2] (setting [6]) were > 75% and < 25%, respectively.

In the case of `CC1(C)CC[C@H]([C@@H](O)c2cccc(O)c2)N1` [Compound 111, m-{(S)-[(R)-5,5-dimethyl-2-pyrrolidinyl] hydroxymethyl}phenol], the results for the Emax at 10 µM in the assay on L6-myotubes [1] (setting [3]) and with L6-myotubes [2] (setting [4]) were 50 to 75% and < 25%, respectively.

For the molecule `O[C@@H](c1cncc(F)c1)[C@H]1CC[C@H](Cc2ccc(Cl)cc2)N1` [Compound 405, (S)-{(2R,5R)-5-[(p-chlorophenyl)methyl]-2-pyrrolidinyl}(5-fluoro-3-pyridyl)methanol], the results for the Emax at 10 µM in the assay with L6-myotubes [1] (setting [5]) and in the assay with L6-myotubes [2] (setting [6]) were > 75% and < 25%, respectively.

As to `CC1(C)CCC[C@@H]([C@H](O)c2cccc(F)c2)N1` [Compound 190], the Emax at 10 µM in the assay with L6-myotubes [1] (setting [3]) is > 75%; in the assay on L6-myotubes [2] (setting [4]), < 25%.

Take `CC(C)(NC[C@H](O)c1cccc(F)c1)[C@H]1CC[C@@H](O)CC1` [Compound 284, (R)-1-(m-fluorophenyl)-2-{1-methyl-1-[(1s,4S)-4-hydroxycyclohexyl]ethylamino}-1-ethanol]: the Emax at 10 µM is 50 to 75% with L6-myotubes [1] (setting [5]) and < 25% in the assay on L6-myotubes [2] (setting [6]).

Regarding `O[C@@H](CNCCC[C@H]1CC[C@@H](OCc2ccccc2)CC1)c1cccc(F)c1` [Compound 277, (R)-1-(m-fluorophenyl)-2-{3-[(1s,4R)-4-(benzyloxy)cyclohexyl]propylamino}-1-ethanol], the Emax at 10 µM was 25 to 50% in the assay with L6-myotubes [1] (setting [5]) and < 25% with L6-myotubes [2] (setting [6]).

Regarding `CC(=O)N[C@H]1CC[C@H](CC(C)(C)NC[C@H](O)c2cccc(C(F)(F)F)n2)CC1` [Compound 460], the Emax at 10 µM in the assay on L6-myotubes [1] (setting [5]) is 50 to 75%; with L6-myotubes [2] (setting [6]), < 25%.

Regarding `Cc1ncccc1[C@@H](O)CNC(C)(C)C` [Compound 376, (R)-2-(tert-butylamino)-1-(2-methyl-3-pyridyl)-1-ethanol], the Emax at 10 µM in the assay with L6-myotubes [1] (setting [5]) is > 75%; in the assay on L6-myotubes [2] (setting [6]), 25 to 50%.

In the case of `CC12CC(C1)[C@@H]([C@H](O)c1cncc(F)c1)N2` [Compound 223, (R)-{(S)-1-methyl-2-azabicyclo[[2.1.1]]hex-3-yl}(5-fluoro-3-pyridyl)methanol], the Emax at 10 µM was 25 to 50% in the assay with L6-myotubes [1] (setting [5]) and < 25% with L6-myotubes [2] (setting [6]).

For `O[C@@H](CNCCC[C@H]1CC[C@@H](OCc2ccccc2)CC1)c1cncc(F)c1` [Compound 275, (R)-1-(5-fluoro-3-pyridyl)-2-{3-[(1s,4R)-4-(benzyloxy)cyclohexyl]propylamino}-1-ethanol], the Emax at 10 µM is 50 to 75% with L6-myotubes [1] (setting [5]) and < 25% with L6-myotubes [2] (setting [6]).

As to `O[C@@H](CNCCC[C@H]1CC[C@@H](O)CC1)c1cncc(F)c1` [Compound 304, (R)-1-(5-fluoro-3-pyridyl)-2-{3-[(1s,4R)-4-hydroxycyclohexyl]propylamino}-1-ethanol], the Emax at 10 µM is 50 to 75% with L6-myotubes [1] (setting [5]) and < 25% with L6-myotubes [2] (setting [6]).

As for `O[C@H](c1cccc(F)c1)C12CCC(CCCc3ccccc3)(CC1)N2` [Compound 536, (R)-(m-fluorophenyl){4-(3-phenylpropyl)-7-azabicyclo[[2.2.1]]hept-1-yl}methanol], the Emax at 10 µM is > 75% in the assay with L6-myotubes [1] (setting [5]) and 25 to 50% in the assay on L6-myotubes [2] (setting [6]).

Regarding `CO[C@H]1CC[C@H](C[C@H]2CC[C@H]([C@H](O)c3ccccc3F)N2)CC1` [Compound 339, (R)-[(2R,5R)-5-{[(1r,4R)-4-methoxycyclohexyl]methyl}-2-pyrrolidinyl](o-fluorophenyl)methanol], the Emax at 10 µM was > 75% with L6-myotubes [1] (setting [5]) and < 25% in the assay with L6-myotubes [2] (setting [6]).

On to `COC(=O)[C@H]1CC[C@@H](CCC(C)(C)NC[C@H](O)c2cncc(F)c2)CC1` [Compound 349, methyl (1S,4s)-4-{3-[(R)-2-(5-fluoro-3-pyridyl)-2-hydroxyethylamino]-3-methylbutyl} cyclohexanecarboxylate], for which the Emax at 10 µM in the assay on L6-myotubes [1] (setting [5]) was > 75%; with L6-myotubes [2] (setting [6]), 25 to 50%.

Regarding `COC(=O)[C@H]1CC[C@H](C(C)(C)NC[C@H](O)c2cncc(F)c2)CC1` [Compound 370, (1R,4r)-8-[(R)-2-(5-fluoro-3-pyridyl)-2-hydroxyethylamino]-7-methoxy-p-menthan-7-one], the results for the Emax at 10 µM with L6-myotubes [1] (setting [5]) and in the assay with L6-myotubes [2] (setting [6]) were > 75% and < 25%, respectively.

As to `O[C@@H](c1cncc(F)c1)[C@H]1CC[C@@H](Cc2ccc(Cl)cc2)N1` [Compound 403, (S)-{(2R,5S)-5-[(p-chlorophenyl)methyl]-2-pyrrolidinyl}(5-fluoro-3-pyridyl)methanol], the Emax at 10 µM was 50 to 75% in the assay on L6-myotubes [1] (setting [5]) and < 25% with L6-myotubes [2] (setting [6]).

`CC(C)(C[C@H]1CC[C@@H](NC(=O)C2CCC2)CC1)NC[C@H](O)c1cccc(F)c1` [Compound 448]: the Emax at 10 µM in the assay on L6-myotubes [1] (setting [5]) was 50 to 75%; in the assay with L6-myotubes [2] (setting [6]) it was < 25%.

`CC(C)(C)NC[C@H](O)c1ccc(O)cn1` [Compound 95, 6-[(S)-2-(tert-butylamino)-1-hydroxyethyl]-3-pyridinol]: the Emax at 10 µM with L6-myotubes [1] (setting [3]) is 50 to 75%; in the assay on L6-myotubes [2] (setting [4]) it was < 25%.

Regarding `CC12CC(C1)[C@H]([C@@H](O)c1ccccc1F)N2` [Compound 212], the Emax at 10 µM was > 75% with L6-myotubes [1] (setting [5]) and < 25% in the assay on L6-myotubes [2] (setting [6]).

On to `CC1(C)CC[C@@H]([C@H](O)c2cccc(F)c2)N1` [Compound 144], for which the Emax at 10 µM in the assay with L6-myotubes [1] (setting [3]) and in the assay on L6-myotubes [2] (setting [4]) was < 25% in each case.

As for `CC(=O)N[C@H]1CC[C@@H](CNC[C@H](O)c2cccc(F)c2)CC1` [Compound 307], the Emax at 10 µM with L6-myotubes [1] (setting [5]) was 50 to 75%; in the assay with L6-myotubes [2] (setting [6]), < 25%.

Regarding `CCC[C@H]1CCC[C@H]([C@H](O)c2ccccc2Cl)N1` [Compound 135, (R)-[(2R,6S)-6-propyl-2-piperidyl](o-chlorophenyl)methanol], the Emax at 10 µM in the assay on L6-myotubes [1] (setting [3]) is 25 to 50%; in the assay on L6-myotubes [2] (setting [4]), < 25%.

On to `CO[C@H]1CC[C@H](CNC[C@H](O)c2cncc(F)c2)CC1` [Compound 229, (R)-1-(5-fluoro-3-pyridyl)-2-({[(1r,4R)-4-methoxycyclohexyl]methyl}amino)-1-ethanol], for which the figures for the Emax at 10 µM with L6-myotubes [1] (setting [5]) and in the assay with L6-myotubes [2] (setting [6]) were 50 to 75% and < 25%, respectively.

As for `CO[C@H]1CC[C@@H](C(C)(C)NC[C@H](O)c2cncc(F)c2)CC1` [Compound 252, (R)-1-(5-fluoro-3-pyridyl)-2-{1-methyl-1-[(1s,4S)-4-methoxycyclohexyl]ethylamino}-1-ethanol], the Emax at 10 µM in the assay on L6-myotubes [1] (setting [5]) and in the assay on L6-myotubes [2] (setting [6]) was < 25% each time.

For the molecule `CCCC1(CCC)CC[C@H]([C@H](O)c2cccc(F)c2)N1` [Compound 159], the Emax at 10 µM in the assay with L6-myotubes [1] (setting [3]) was 50 to 75%; with L6-myotubes [2] (setting [4]), < 25%.

For the molecule `O[C@@H](c1cccc(F)c1)C12CCC(COCc3ccc(OC(F)(F)F)cc3)(CC1)N2` [Compound 487], the Emax at 10 µM in the assay with L6-myotubes [1] (setting [5]) and in the assay on L6-myotubes [2] (setting [6]) was < 25% each time.

With `O[C@@H](CNCCC[C@H]1CC[C@@H](O)CC1)c1cccc(F)c1` [Compound 306, (R)-1-(m-fluorophenyl)-2-{3-[(1s,4R)-4-hydroxycyclohexyl]propylamino}-1-ethanol], the Emax at 10 µM with L6-myotubes [1] (setting [5]) was 25 to 50%; in the assay on L6-myotubes [2] (setting [6]), < 25%.

Take `CC(C)(NC[C@H](O)c1cncc(F)c1)[C@H]1CC[C@H](N)CC1` [Compound 344]: the Emax at 10 µM in the assay with L6-myotubes [1] (setting [5]) and with L6-myotubes [2] (setting [6]) was < 25% throughout.

For `CCCS(=O)(=O)N[C@H]1CC[C@@H](CC(C)(C)NC[C@H](O)c2cncc(F)c2)CC1` [Compound 523, (R)-2-{1,1-dimethyl-2-[(1s,4S)-4-(propylsulfonylamino)cyclohexyl]ethylamino}-1-(5-fluoro-3-pyridyl)-1-ethanol], the Emax at 10 µM in the assay with L6-myotubes [1] (setting [5]) was 50 to 75%; with L6-myotubes [2] (setting [6]), < 25%.

In the case of `C[C@H]1CC[C@@H]([C@H](O)c2ccccc2)N1` (racemic) [Compound 38, Racemic mixture of (R)-[(2S,5S)-5-methyl-2-pyrrolidinyl]phenylmeth anol and (S)-[(2R,5R)-5-methyl-2-pyrrolidinyl]] phenylmethanol], the results for the Emax at 10 µM in the assay on L6-myotubes [1] (setting [3]) and with L6-myotubes [2] (setting [4]) were 25 to 50% and < 25%, respectively.
